Results on four substances are retold here after publication PMC10285453 (Comprehensive Psychoneuroendocrinology, 2023).

Where only a bound is given, the exact number is not on record here.

Series [1] relates to primary polyclonal rabbit anti-OXT IgG (Cayman Chemical Company OXT EIA, secondary monoclonal mouse anti-rabbit IgG). Briefly: OXT EIA cross-reactivity, Cayman Chemical Company kit. The series is classed as binding.
Series [2] is described as follows: Reversed phase SPE of OXT from pure solution. The series is classed as physicochemical. Particulars: 200 pg/ml pure OXT solution, 0.1% TFA-H2O, separate C-18 column elutions, Enzo Life Sciences EIA.
The subject of series [3] is primary polyclonal rabbit anti-OXT IgG (Enzo Life Sciences OXT EIA, secondary polyclonal goat anti-rabbit IgG). Particulars: competitive EIA; published IC50; ref manufacturer (Enzo Life Sciences); cited from earlier work.
In series [4] the test system is primary polyclonal rabbit anti-OXT IgG (Cayman Chemical Company OXT EIA, secondary monoclonal mouse anti-rabbit IgG). The note with it: competitive EIA; ref manufacturer (Cayman Chemical Company); cited from earlier work.
The conditions of series [5]: same ultrafiltration columns, cited from earlier work.

Consider Immunoglobulin G, for which, in series [1], the “cross-reactivity (IC50(OXT)/IC50(interfering protein))” value (shortened to “cross-reactivity”) is less than 0.01%.

Turning to Immunoglobulin M, the “cross-reactivity” value in series [1] is given as less than 0.01%.

In the case of Transferrin, in series [1], the “cross-reactivity” value is listed as less than 0.01%.

For the substance oxytocin [OXT], the “OXT recovered in the eluate, reversed phase SPE” value in series [2] (30–40% ACN range, CV for three columns 30.8–136.5%) is recorded as 10.1–49.1%. For the same substance, in series [2], the “total amount of OXT measured in all fractions (load, wash, eluate) as % of the original sample” value was 37.1–92.2%. For the same substance, in series [3], the “IC50 of the Enzo Life Sciences OXT assay” value is 0.228 ng/mL. In addition, the “mean IC50 of the Cayman Chemical Company OXT assay” value in series [4] was 0.08 ng/mL. For the same substance, the “OXT recovery rate from plasma, ultrafiltration” value in series [5] (plasma) is 91.8%. Moreover, the “OXT recovery rate from saliva, ultrafiltration” value in series [5] (saliva) is recorded as 68.4%.
